According to US20240060146A1, “CHEMICAL SUBSTANCE EVALUATION SYSTEM USING MULTICOLOR LIGHT-EMITTING CELLS” (TOHOKU UNIVERSITY, priority 2020, published 2024):

How the values were obtained:
Assay type in all cases: cell-based
[1] = test system: 2H4 cells; test: IL-2 Luc LTT: evaluation of chemical substance in 2H4 cells; conditions: for IL-2 Luc LTT: 1 h chemical, then 25 nM PMA and 1 μM ionomycin 24 h, class from Min % suppression (nIL2LA) and Min Inh-GAPLA
Description: (§1) 2H4 cells were established from Jurkat cells according to the method described in PTL 1. First, for the preparation of 2H4 cells, a plasmid having SLG introduced downstream of the IL-2 promoter, a plasmid having SLR introduced downstream of the G3PDH promoter, and a plasmid having SLO introduced downstream of the INF-γ promoter were prepared as internal standards. These plasmids contained a resistance gene for hygromycin B, puromycin, and neomycin downstream of SLG, SLR, and SLO, respectively. The conditions for drug selection after transfection of the host Jurkat cells were as follows: in the primary selection, the cells were cultured for 1 week in the presence of a drug. In the secondary selection culture, the cells that survived in the primary selection culture were seeded in a 96-well plate at 1 cell/well or 200 cells/well, and cultured for 2 weeks under the same drug conditions. After the secondary selection culture, the cells were subjected to clone selection from the two points of signal intensity and signal induction by drug treatment. The G3PDH promoter SLR was first introduced to establish monochromatic stable cell line Jurkat: G3PDH-SLR #14D1 cells. These cells were used as the parent cell line to introduce the INF-γ promoter SLO, thereby establishing bichromatic stable cell line Jurkat: INFγ-SLO/G3PDH-SLR #2B12 cells. Subsequently, the obtained cells were used as a parent cell line to introduce the IL-2 promoter SLG, thereby establishing trichromatic stable cell line Jurkat IL-2-SLG/INFγ-SLO/G3PDH-SLR #2H4 cells.
The chemical substances listed in Table 1 were evaluated using 2H4 cells. 2H4 cells were seeded in a 96-well plate at 1×10^4/well and treated with each chemical substance for 1 hour, followed by incubating the cells with 25 nM PMA and 1 μM ionomycin for 24 hours. After 24 hours from the treatment with PMA and ionomycin, Tripluck Assay Reagent (manufactured by Toyobo Co., Ltd.) was added, and the amount of luminescence was measured with a Phelios microplate luminometer (manufactured by Atto Corporation). For control, 2H4 cells untreated with a chemical substance were also examined in the same manner. The amount of luminescence of SLG luciferase activity (IL2LA), SLR luciferase activity (GAPLA), and SLO luciferase activity (IFNLA) was measured, and IL-2LA and IFNLA were each normalized by GAPLA and determined to be nIL2LA and nIFNLA, respectively. Thereafter, for the concentration of each chemical substance, “% suppression” and “Inh-GAPLA” were determined according to the following formulas (1) and (2), and the chemical substances were evaluated by using their minimum value (Min % suppression, Min Inh-GAPLA).
In the evaluation, for control, PMA/ionomycin-treated 2H4 cells and PMA/ionomycin-untreated 2H4 cells were also measured for nIL2LA.
(§2) % suppression={(nIL2LA in 2H4 cells untreated with a chemical substance)−(nIL2LA in 2H4 cells treated with a chemical substance)}×100/(nIL2LA in 2H4 cells untreated with a chemical substance) ---(1) Inh-GAPLA=(GAPLA in 2H4 cells treated with a chemical substance)/(GAPLA in 2H4 cells untreated with a chemical substance) ---(2)

[2] = test system: 2H4 cells; test: IL-2 Luc assay: evaluation of chemical substance in 2H4 cells; conditions: 1 h chemical, then PMA/ionomycin, luminescence after six hours, class from Min % suppression of nIL2LA
Description: as §1, §2
The chemical substances listed in Table 1 were evaluated using 2H4 cells. 2H4 cells were seeded in a 96-well plate at 2×10^5 cells/50 μl/well and treated with each chemical substance for 1 hour, followed by incubating the cells with 25 nM PMA and 1 µM ionomycin […]. After six hours from the treatment with PMA and ionomycin, Tripluc: Assay Reagent (manufactured by Toyobo Co., Ltd.) was added, and the amount of luminescence was measured with a Phelios microplate luminometer (manufactured by Atto Corporation). For control, 2H4 cells untreated with a chemical substance were also examined in the same manner. The amount of luminescence of SLG luciferase activity (IL2LA), SLR luciferase activity (GAPLA), and SLO luciferase activity (IFNLA) was measured, and IL-2LA and IFNLA were each normalized by GAPLA and determined to be nIL2LA and nIFNLA, respectively. Thereafter, for the concentration of each chemical substance, the value of suppression was calculated according to formula (1) above, and the chemical substances were evaluated by using their minimum value (Min suppression).

[3] = test system: 2H4 cells; test: Evaluation of combination of IL-2 Luc LTT and IL-2 Luc assay; parameters: key: Positive (Pos): If the result is either LCT in the IL-2 Luc LTT or S in the IL-2 Luc assay, or both, the chemical substance is determined to be an immunosuppressive substance.; Negative (Neg): In the case other than the above, the chemical substance is determined to be a non-immunosuppressive substance; conditions: LCT in IL-2 Luc LTT or S in IL-2 Luc assay = Pos
Description: Positive (Pos): If the result is either LCT in the IL-2 Luc LTT or S in the IL-2 Luc assay, or both, the chemical substance is determined to be an immunosuppressive substance. Negative (Neg): In the case other than the above, the chemical substance is determined to be a non-immunosuppressive substance.

Nc1nc2c(ncn2COCCO)c(=O)[nH]1 [Acyclovir]
IL-2 Luc LTT [1]: I (−35<Min % suppression <35 and 0.7≤Min Inh-GAPLA: Inconclusive (denoted as “I”; possibly not measurable due to low water solubility))
IL-2 Luc Assay [2]: N (−35<Min % suppression <35: No Effect (denoted as “N”; determined to not affect immunity))
Evaluation of Combination [3]: Neg

Nc1nc2nc[nH]c2c(=S)[nH]1 [6-Thioguanine]
IL-2 Luc LTT [1]: LCT (Min % suppression ≤−35 and Min Inh-GAPLA <0.7: Leukocyte toxic (denoted as “LCT”; determined to have cell growth inhibition action and/or metabolic activity inhibition action))
IL-2 Luc Assay [2]: N (−35<Min % suppression <35: No Effect (denoted as “N”; determined to not affect immunity))
Evaluation of Combination [3]: Pos

Nc1nc(F)nc2c1ncn2[C@@H]1O[C@H](CO)[C@@H](O)[C@@H]1O [Fludarabine]
IL-2 Luc LTT [1]: LCT (Min % suppression ≤−35 and Min Inh-GAPLA <0.7: Leukocyte toxic (denoted as “LCT”; determined to have cell growth inhibition action and/or metabolic activity inhibition action))
IL-2 Luc Assay [2]: A (Min suppression ≤−35: Augmentation (denoted as “A”; determined to have immunoaugmenting action))
Evaluation of Combination [3]: Pos

Cc1ccc(=O)n(-c2ccccc2)c1 [Pirfenidone]
IL-2 Luc LTT [1]: I (−35<Min % suppression <35 and 0.7≤Min Inh-GAPLA: Inconclusive (denoted as “I”; possibly not measurable due to low water solubility))
IL-2 Luc Assay [2]: S (Min %; suppression ≥35: Suppression (denoted as “S”; determined to have immunosuppressive action))
Evaluation of Combination [3]: Pos

NC(=O)c1cccnc1 [Nicotinamide (NA), Nicotinamide]
IL-2 Luc LTT [1]: LCT (Min % suppression ≤−35 and Min Inh-GAPLA <0.7: Leukocyte toxic (denoted as “LCT”; determined to have cell growth inhibition action and/or metabolic activity inhibition action))
IL-2 Luc Assay [2]: A (Min suppression ≤−35: Augmentation (denoted as “A”; determined to have immunoaugmenting action))
Evaluation of Combination [3]: Pos

S=c1nc[nH]c2nc[nH]c12 [6-Mercaptoprine]
IL-2 Luc LTT [1]: NLCT
IL-2 Luc Assay [2]: N (−35<Min % suppression <35: No Effect (denoted as “N”; determined to not affect immunity))
Evaluation of Combination [3]: Neg

CS(=O)(=O)OCCCCOS(C)(=O)=O [Busulfan]
IL-2 Luc LTT [1]: I (−35<Min % suppression <35 and 0.7≤Min Inh-GAPLA: Inconclusive (denoted as “I”; possibly not measurable due to low water solubility))
IL-2 Luc Assay [2]: N (−35<Min % suppression <35: No Effect (denoted as “N”; determined to not affect immunity))
Evaluation of Combination [3]: Neg

CC[C@H](C)C(=O)O[C@H]1C[C@H](O)C=C2C=C[C@H](C)[C@H](CC[C@@H](O)C[C@@H](O)CC(=O)O)[C@H]21 [Pravastatin]
IL-2 Luc LTT [1]: I (−35<Min % suppression <35 and 0.7≤Min Inh-GAPLA: Inconclusive (denoted as “I”; possibly not measurable due to low water solubility))
IL-2 Luc Assay [2]: N (−35<Min % suppression <35: No Effect (denoted as “N”; determined to not affect immunity))
Evaluation of Combination [3]: Neg

Nc1ccn([C@@H]2O[C@H](CO)[C@@H](O)[C@@H]2O)c(=O)n1 [Cytarabine]
IL-2 Luc LTT [1]: LCT (Min % suppression ≤−35 and Min Inh-GAPLA <0.7: Leukocyte toxic (denoted as “LCT”; determined to have cell growth inhibition action and/or metabolic activity inhibition action))
IL-2 Luc Assay [2]: N (−35<Min % suppression <35: No Effect (denoted as “N”; determined to not affect immunity))
Evaluation of Combination [3]: Pos

C[C@@H]1C[C@H]2[C@@H]3CCC4=CC(=O)C=C[C@]4(C)[C@@]3(F)[C@@H](O)C[C@]2(C)[C@@]1(O)C(=O)CO [Dexamethasone (Dex), Dexamethasone]
IL-2 Luc LTT [1]: NLCT
IL-2 Luc Assay [2]: N (−35<Min % suppression <35: No Effect (denoted as “N”; determined to not affect immunity))
Evaluation of Combination [3]: Neg

CS(=O)(=O)Nc1cc2occ(NC=O)c(=O)c2cc1Oc1ccccc1 [Igratimod]
IL-2 Luc LTT [1]: NLCT
IL-2 Luc Assay [2]: S (Min %; suppression ≥35: Suppression (denoted as “S”; determined to have immunosuppressive action))
Evaluation of Combination [3]: Pos

CO[C@H]1C[C@@H]2CC[C@@H](C)[C@@](O)(O2)C(=O)C(=O)N2CCCC[C@H]2C(=O)O[C@H]([C@H](C)C[C@@H]2CC[C@@H](O)[C@H](OC)C2)CC(=O)[C@H](C)/C=C(\C)[C@@H](O)[C@@H](OC)C(=O)[C@H](C)C[C@H](C)/C=C/C=C/C=C/1C [Rapamycin (RPM), Rapamycin]
determination in IL-2 Luc LTT (in words) [1]: inhibit cell growth and/or metabolic activity
IL-2 Luc LTT [1]: LCT (Min % suppression ≤−35 and Min Inh-GAPLA <0.7: Leukocyte toxic (denoted as “LCT”; determined to have cell growth inhibition action and/or metabolic activity inhibition action))
IL-2 Luc Assay [2]: N (−35<Min % suppression <35: No Effect (denoted as “N”; determined to not affect immunity))
Evaluation of Combination [3]: Pos

CN(C/C=C/C#CC(C)(C)C)Cc1cccc2ccccc12 [Terbinafine]
IL-2 Luc LTT [1]: NLCT
IL-2 Luc Assay [2]: N (−35<Min % suppression <35: No Effect (denoted as “N”; determined to not affect immunity))
Evaluation of Combination [3]: Pos

COc1cc2c(c(OC)c1OC)-c1ccc(OC)c(=O)cc1[C@@H](NC(C)=O)CC2 [Colchicine]
IL-2 Luc LTT [1]: LCT (Min % suppression ≤−35 and Min Inh-GAPLA <0.7: Leukocyte toxic (denoted as “LCT”; determined to have cell growth inhibition action and/or metabolic activity inhibition action))
IL-2 Luc Assay [2]: S (Min %; suppression ≥35: Suppression (denoted as “S”; determined to have immunosuppressive action))
Evaluation of Combination [3]: Pos

NS(=O)(=O)c1cc2c(cc1Cl)N=CNS2(=O)=O [Chlorothiazide]
IL-2 Luc LTT [1]: NLCT
IL-2 Luc Assay [2]: N (−35<Min % suppression <35: No Effect (denoted as “N”; determined to not affect immunity))
Evaluation of Combination [3]: Neg

Cn1cnc([N+](=O)[O-])c1Sc1ncnc2nc[nH]c12 [Azathioprine (AZ), Azathioprine]
IL-2 Luc LTT [1]: NLCT
IL-2 Luc Assay [2]: S (Min %; suppression ≥35: Suppression (denoted as “S”; determined to have immunosuppressive action))
Evaluation of Combination [3]: Pos

Cc1cn([C@H]2C[C@H](N=[N+]=[N-])[C@@H](CO)O2)c(=O)[nH]c1=O [Retrovir]
IL-2 Luc LTT [1]: NLCT
IL-2 Luc Assay [2]: A (Min suppression ≤−35: Augmentation (denoted as “A”; determined to have immunoaugmenting action))
Evaluation of Combination [3]: Pos

C=CC[C@@H]1/C=C(\C)C[C@H](C)C[C@H](OC)[C@H]2O[C@@](O)(C(=O)C(=O)N3CCCC[C@H]3C(=O)O[C@H](/C(C)=C/[C@@H]3CC[C@@H](O)[C@H](OC)C3)[C@H](C)[C@@H](O)CC1=O)[C@H](C)C[C@@H]2OC [Tacrolimus (Tac), Tacrolimus]
IL-2 Luc LTT [1]: NLCT
IL-2 Luc Assay [2]: S (Min %; suppression ≥35: Suppression (denoted as “S”; determined to have immunosuppressive action))
Evaluation of Combination [3]: Pos
